Laboratory results reported in patent publication US4742049A, “Semisynthetic erythromycin antibiotics” (Abbott Laboratories, priority 1986, dated 1988).
Values after ≈ are worked out from the molar mass of the structure shown. Like-named read-outs stand apart in the source and are kept apart here.

Tests used:
Haemophilus influenzae = test: MIC against strains of Haemophilus influenzae; format: cell-based; settings: Haemophilus influenzae, read-out: MIC
Method: Erythromycin A was used for this purpose.
After incubation, each disk is read.
In the manner of Example 23, the efficacy of compounds of this invention were tested against numerous strains of Haemophilus influenzae.

[1] = test system: gut contractions (stomach, duodenum, jejunum); settings: dog, in vivo, iv, 4 mg/kg
Method: Compounds of this invention have been tested for gastrointestinal stimulating activity in a dog model at 4 mg/kg intravenously. Contractions in the gut were recorded with surgically implanted strain gauges. […] Ratios were calculated for the stomach, duodenum and jejunum, and a final arithmetic mean index was calculated and reported in Table 1.

Row | MIC (Haemophilus influenzae; ATCC9006, strain ATCC 9006) [µg/mL] | MIC (Haemophilus influenzae; ATCC9795, strain ATCC 9795) [µg/mL] | MIC (Haemophilus influenzae; ATCC10211, strain ATCC 10211) [µg/mL] | MIC (Haemophilus influenzae; ATCC19418, strain ATCC 19418) [µg/mL] | MIC (Haemophilus influenzae; strain 504) [µg/mL] | MIC (Haemophilus influenzae; strain 519A) [µg/mL] | MIC (Haemophilus influenzae; strain 566A) [µg/mL] | MIC (Haemophilus influenzae; strain 588A) [µg/mL] | MIC (Haemophilus influenzae; strain 632A) [µg/mL] | MIC (Haemophilus influenzae; strain 667A) [µg/mL] | MIC (Haemophilus influenzae; strain 747C) [µg/mL] | MIC (Haemophilus influenzae; strain 751) [µg/mL] | MIC (Haemophilus influenzae; strain 1177) [µg/mL] | MIC (Haemophilus influenzae; strain 1435) [µg/mL] | MIC (Haemophilus influenzae; strain 5036B) [µg/mL] | MIC (Haemophilus influenzae; strain DILL AMP R) [µg/mL] | MIC (Haemophilus influenzae; strain SOL AMP R) [µg/mL] | MIC (Haemophilus influenzae; strain SPK AMP R) [µg/mL] | Gastrointestinal Motility Index [1] | Compound
1 | 0.5 (≈ 0.583 µM) | 0.5 (≈ 0.583 µM) | 1 (≈ 1.17 µM) | 1 (≈ 1.17 µM) | 1 (≈ 1.17 µM) | 0.5 (≈ 0.583 µM) | 1 (≈ 1.17 µM) | 0.5 (≈ 0.583 µM) | 0.5 (≈ 0.583 µM) | 0.5 (≈ 0.583 µM) | 0.5 (≈ 0.583 µM) | 0.5 (≈ 0.583 µM) | 0.5 (≈ 0.583 µM) | 0.25 (≈ 0.291 µM) | 1 (≈ 1.17 µM) | 0.5 (≈ 0.583 µM) | 0.5 (≈ 0.583 µM) | 0.5 (≈ 0.583 µM) | – | CC[C@H]1OC(=O)[C@H](C)[C@@H](O[C@H]2C[C@@](C)(OC)[C@@H](O)[C@H](C)O2)[C@H](C)[C@@H](O[C@@H]2O[C@H](C)C[C@H](N(C)C)[C@H]2O)[C@](C)(OC)C[C@@H](C)C(=O)[C@H](C)[C@H]2N(CCCN(C)C)C(=O)O[C@]12C [Example 12, 11-deoxy-6-O-methyl erythromycin A 11,12-[N-(3-dimethylamino)propyl]cyclic carbamate]
2 | 0.5 (≈ 0.602 µM) | 0.5 (≈ 0.602 µM) | 1 (≈ 1.2 µM) | 1 (≈ 1.2 µM) | 1 (≈ 1.2 µM) | 0.5 (≈ 0.602 µM) | 1 (≈ 1.2 µM) | 1 (≈ 1.2 µM) | 1 (≈ 1.2 µM) | 1 (≈ 1.2 µM) | 0.5 (≈ 0.602 µM) | 1 (≈ 1.2 µM) | 1 (≈ 1.2 µM) | 0.5 (≈ 0.602 µM) | 1 (≈ 1.2 µM) | 0.5 (≈ 0.602 µM) | 0.5 (≈ 0.602 µM) | 1 (≈ 1.2 µM) | – | CC[C@H]1OC(=O)[C@H](C)[C@@H](O[C@H]2C[C@@](C)(OC)[C@@H](O)[C@H](C)O2)[C@H](C)[C@@H](O[C@@H]2O[C@H](C)C[C@H](N(C)C)[C@H]2O)[C@](C)(OC)C[C@@H](C)C(=O)[C@H](C)[C@H]2N(CCCO)C(=O)O[C@]12C [Example 15, 11-deoxy-6-O-methyl erythromycin A 11,12-(N-3-hydroxypropyl)cyclic carbamate]
3 | – | – | – | – | – | – | – | – | – | – | – | – | – | – | – | – | – | – | 3.60 | CC[C@H]1OC(=O)[C@H](C)[C@@H](O[C@H]2C[C@@](C)(OC)[C@@H](O)[C@H](C)O2)[C@H](C)[C@@H](O[C@@H]2O[C@H](C)C[C@H](N(C)C)[C@H]2O)[C@](C)(O)C[C@@H](C)C(=O)[C@H](C)[C@H]2NC(=O)O[C@@]21C [Example 18, 11-deoxyerythromycin A 11,12-cyclic carbamate]
4 | – | – | – | – | – | – | – | – | – | – | – | – | – | – | – | – | – | – | 5.83 | CC[C@H]1OC(=O)[C@H](C)[C@@H](O[C@H]2C[C@@](C)(OC)[C@@H](O)[C@H](C)O2)[C@H](C)[C@@H](O[C@@H]2O[C@H](C)C[C@H](N(C)C)[C@H]2O)[C@](C)(O)C[C@@H](C)C(=O)[C@H](C)[C@H]2N(C)C(=O)O[C@]12C [Example 19, 11-deoxyerythromycin A 11,12-(N-methyl)cyclic carbamate]
